The test system of assay [1] is T. congolense 6C3. Kind of assay: microbe, parasite or virus in culture. Type of assay: cell-based, Trypanosoma congolense. Conditions: for RF resistance factor: T. congolense 6C3 vs IL3000.
In assay [2] the test system is U937 cells. Description: Cytotoxicity against U937 cells (resazurin). The format is cell-based, human. The settings on record: for EC50 / AVG EC50 U937 cells: n = 3; for SI, selectivity index relative to T. b. brucei WT: EC50(U937)/EC50(TbbWT): U937 vs T. b. brucei WT. The method, then: U937 cells (European Collection of Cell Cultures Cat. No. 85011440, supplied by Sigma Aldrich, Dorset, UK) were cultured as described previously. U937 cells were grown to log phase at 37 °C and harvested at a density of 1 × 10^5 cells/mL in a 96-well plate (TPP, Trasadingen, Switzerland). Aliquots of 100 µL/well of the cells were added and the plate was incubated for 24 h at 37 °C, 5% CO2, 100% humidity. A 2-fold serial dilution of the test compound was carried out in growth medium, in another 96-well plate, and 100 μL of each dilution was then transferred to the cultured cells using a multichannel pipette, followed by another incubation for 24 h. Resazurin dye was then added at a final concentration of 10% (v/v) and the plates were incubated for a further 24 h, after which fluorescence was measured using a Wallac Victor 2 microplate reader (λ Ex/Em: 560/590 nm). The compounds and fractions were tested in triplicate, and cell viability was expressed as a percentage of the drug-free control. The resulting data were analysed using GraphPad Prism 8 to obtain dose-response curves and corresponding mean inhibitory concentration (EC50) values.
A general note: Alamar Blue is a resazurin reagent that responds to reducing activity.

The subject of assay [3] is T. b. brucei B48. Description: microbe, parasite or virus in culture. The format is cell-based, Trypanosoma b. brucei. Conditions: for RF resistance factor / RF resistance factor (EC50 B48/EC50 WT): T. b. brucei B48 vs S427WT. As to the method: (§1) Alamar blue (resazurin) assays were used to obtain the EC50 values for PNG and its fractions in at least three independent determinations.
(§2) The extract and the purified compounds were cultured and tested against T. b. brucei, T. congolense and C. fasciculata as described previously. The T. b. brucei strains were a standard drug-sensitive lab strain, Lister 427 (wild-type) and the derived cell line B48 was developed from the wild-type by gene deletion of the drug transporter TbAT1 followed by in vitro adaptation to pentamidine, leading to the further loss of the gene encoding TbAQP2 [48], rendering it highly resistant to the diamidine and melaminophenyl arsenical classes of trypanocides. The T. congolense strains were the lab strain IL3000 and its diminazene-adapted clone 6C3 [29]. The C. fasciculata strain HS6 was a gift of Prof. Terry Smith (University of St Andrews, UK).

The subject of assay [4] is T. b. brucei S427WT. Description: Alamar blue (resazurin) assay, T. b. brucei s427 wild-type. Type of assay: cell-based, Trypanosoma b. brucei. The method, then:
as §1, §2

In assay [5] the test system is T. congolense IL3000. Description: Antiprotozoal assay, drug-sensitive T. congolense IL3000. Type of assay: cell-based, Trypanosoma congolense.
For assay [6], the system named is C. fasciculata. Description: Antiprotozoal assay, C. fasciculata. Type of assay: cell-based, Crithidia fasciculata. Conditions: Table 9.
Assay [7] relates to T. b. brucei B48. Kind of assay: Drug sensitivity using cell count (growth curve) of T. b. brucei B48. Type of assay: cell-based, Trypanosoma b. brucei. Conditions: 1×, 2× and 4× EC50, 2 × 10^5 cells/mL, up to 48 h.
[8] abbreviates: Trypanosoma congolense, Table 7, purified compounds, n = 3.
[9] abbreviates: Homo sapiens, U-937, Table 8, purified compounds.
Setting [10] is: Trypanosoma brucei, read-out: AVG EC50 T. b. brucei B48, Table 5, purified compounds, n = 3.
[11] abbreviates: Trypanosoma brucei, Table 5, purified compounds, n = 3.
The mark [12] stands for this setting: Trypanosoma congolense, Table 7, purified compounds, n = 3, read-out: AVG EC50 T. congolense IL3000.
Setting [13] is: Table 7, purified compounds, n = 3.
The mark [14] stands for this setting: drug-resistant strain vs standard strain.
The mark [15] stands for this setting: Table 5, purified compounds, n = 3.
[16] abbreviates: Table 5, purified compounds, n = 3, read-out: AVG EC50 T. b. brucei B48.

Each structure is given as a SMILES string. Where “and” joins values, the source holds several entries; their conditions need not be identical. Identical values can stand only once. Like-named read-outs stand apart in the source and are kept apart here.

The term EC50 denotes the concentration needed to bring the measured effect to its halfway point.

On to `C=C(C)[C@@H]1CC[C@]2(CO)CC[C@]3(C)[C@H](CC[C@@H]4[C@@]5(C)CC[C@H](O)C(C)(C)[C@@H]5CC[C@]43C)[C@@H]12` [Betulin, betulin], for which the RF resistance factor in assay [1] (Table 7) stood at 1.03; in assay [3] (Table 5), 0.84. The EC50 was 22.1 µg/mL and 49.9 µM in assay [1] (setting [8]); 55.8 µg/mL and 126 µM in assay [2] (setting [9]); 22.3 µg/mL and 50.5 µM in assay [3] (setting [10]); 26.6 µg/mL and 60.1 µM in assay [4] (setting [11]); 21.5 mg/L in assay [5] (setting [12]). In assay [2], the “SI, selectivity index relative to T. b. brucei WT: EC50(U937)/EC50(TbbWT)” value is 2.1.

Turning to `C=C(C)[C@@H]1CC[C@]2(C(=O)O)CC[C@]3(C)[C@H](CC[C@@H]4[C@@]5(C)CC[C@H](O)C(C)(C)[C@@H]5CC[C@]43C)[C@@H]12` [Betulinic acid, betulinic acid], the RF resistance factor in assay [1] (Table 7) is recorded as 1.05; in assay [3] (Table 5), 0.81. The EC50 was 18.1 mg/L in assay [1] (setting [8]); 51.7 µg/mL and 113 µM in assay [2] (setting [9]); 19.6 µg/mL and 42.9 µM in assay [3] (setting [10]); 24.2 µg/mL and 53.1 µM in assay [4] (setting [11]); 17.2 mg/L in assay [5] (setting [12]). Moreover, the “SI, selectivity index relative to T. b. brucei WT: EC50(U937)/EC50(TbbWT)” value in assay [2] worked out at 2.1.

As for `N=C(N)c1ccc(/N=N/Nc2ccc(C(=N)N)cc2)cc1` [Diminazene, reference compound], the RF resistance factor is reported as 5.90 in assay [1] (Table 6) and 5.5 in assay [1] (Table 7). The EC50 in assay [1] (Trypanosoma congolense, Table 6, diminazene control, footnote: EC50 in µM) is 1.54 µM; in assay [1] (setting [8]), 1.55 µM; in assay [5] (Trypanosoma congolense, read-out: AVG EC50 T. congolense IL3000, Table 6, diminazene control, footnote: EC50 in µM), 0.26 µM; in assay [5] (Trypanosoma congolense, read-out: AVG EC50 T. congolense IL3000, Table 7, purified compounds, n = 3) it was 0.28 µM.

On to `CC(C)(O)[C@@H]1CC[C@]2(CO)CC[C@]3(C)[C@H](CC[C@@H]4[C@@]5(C)CC[C@H](O)C(C)(C)[C@@H]5CC[C@]43C)[C@@H]12` [Hydroxybetulin, 20-hydroxybetulin], for which the figures for the RF resistance factor in assay [1] (Table 6) and in assay [3] (Table 5) were 0.48 and 0.47, respectively. In addition, the “AVG EC50 T. congolense 6C3” value in assay [1] (Table 6, diminazene-resistant, n = 3) came out at 6.09 mg/L; in assay [1] (setting [13]), 2.77 mg/L. For the same compound, the EC50 amounted to 6.09 µM in assay [1] (setting [13]); 102 µM in assay [2] (Table 8, purified compounds); 2.09 µM in assay [3] (setting [16]); 4.44 µM in assay [4] (setting [15]). Further, the “fold activity against drug-resistant strain of T. congolense” value in assay [1] (setting [14]) was over 2 fold. Also, the “AVG EC50 U937 cells” value is 47.0 mg/L in assay [2] (Table 4) and 47.0 mg/L in assay [2] (Table 8, purified compounds). In addition, the “SI, selectivity index relative to T. b. brucei WT: EC50(U937)/EC50(TbbWT)” value in assay [2] was 23.0. Further, the “selectivity index against WT T. congolense” value in assay [2] (U937 vs WT T. congolense) stood at 8.1. For the same compound, the “selectivity index against resistant T. brucei” value in assay [2] (U937 vs resistant T. brucei) is recorded as 48.5. Moreover, the “selectivity index against resistant T. congolense” value in assay [2] (U937 vs resistant T. congolense) is recorded as 17.0. Further, the “RF resistance factor (EC50 B48/EC50 WT)” value in assay [3] (Table 3) stood at 0.47. Moreover, the “AVG EC50 T. b. brucei B48” value in assay [3] (Table 3, pentamidine-resistant, n = 3) was 2.09 mg/L; in assay [3] (setting [15]) it was 0.97 mg/L. For the same compound, the “fold activity against drug-resistant strain of T. b. brucei” value in assay [3] (setting [14]) is given as over 2 fold. Also, the “AVG EC50 T. b. brucei S427WT” value in assay [4] (Table 3, n = 3) amounted to 2.04 mg/L; in assay [4] (setting [15]), 2.04 mg/L; in assay [4] (Table 5, purified compounds, n = 3, listed as hydroxybetulin), 2.0 ± 0.1 mg/L. The “fold more active than betulinic acid against T. b. brucei” value in assay [4] (relative to betulinic acid) is recorded as 15 fold. The “AVG EC50 C. fasciculata” value in assay [6] was determined as 23.4 mg/L. Moreover, the “AVG EC50 T. congolense IL3000” value in assay [5] (Table 6, n = 3) stood at 5.77 mg/L; in assay [5] (setting [13]), 5.77 mg/L; in assay [5] (Table 7, purified compounds, n = 3, listed as hydroxybetulin), 5.8 ± 1.3 mg/L. Besides, the “Effect on in vitro growth of T. b. brucei B48 (cell count over time)” value in assay [7] is on record as “more trypanostatic effect”; in assay [7] (listed as 20-hydroxybetulin), “trypanostatic”.

For the compound `CC(CC/C=C(/CO)C(=O)O)C1CCC2(C)C3CCC4C(C)(C)C(O)CCC45CC35CCC12C` (stereo not shown) [Hydroxymangiferolic acid, 27-hydroxyisomangiferolic acid], the RF resistance factor was found to be 0.94 in assay [1] (Table 7) and 0.87 in assay [3] (Table 5). Also, in assay [1] (setting [13]), the “AVG EC50 T. congolense 6C3” value is 15.7 mg/L. The EC50 in assay [1] (setting [13]) is 33.2 µM; in assay [2] (Table 8, purified compounds), 260 µM; in assay [3] (setting [16]) it was 25 µM; in assay [4] (setting [15]), 28.8 µM; in assay [5] (Table 7, purified compounds, n = 3, read-out: AVG EC50 T. congolense IL3000) it was 35.3 µM. For the same compound, the “SI, selectivity index relative to T. b. brucei WT: EC50(U937)/EC50(TbbWT)” value in assay [2] is given as over 7.4. In addition, the “AVG EC50 T. b. brucei B48” value in assay [3] (setting [15]) was 11.8 mg/L. Also, in assay [4] (setting [15]), the “AVG EC50 T. b. brucei S427WT” value amounted to 13.6 mg/L. Further, the “AVG EC50 T. congolense IL3000” value in assay [5] (setting [13]) is 16.7 mg/L.

In the case of `C[C@H]1[C@H](C)CC[C@]2(C(=O)O)CC[C@]3(C)C(=CC[C@@H]4[C@@]5(C)C[C@@H](O)[C@H](O)[C@@](C)(CO)[C@@H]5[C@H](O)C[C@]43C)[C@H]12` [Madecassic acid, madecassic acid], the RF resistance factor in assay [1] (Table 7) and in assay [3] (Table 5) was 0.88 each time. For the same compound, the EC50 is 19.8 µg/mL and 59.1 µM in assay [1] (setting [8]); 90.7 µg/mL and 180 µM in assay [2] (setting [9]); 16 µg/mL and 31.7 µM in assay [3] (setting [10]); 18.1 µg/mL and 36 µM in assay [4] (setting [11]); 22.6 µg/mL and 67.6 µM in assay [5] (setting [12]). Moreover, in assay [2], the “SI, selectivity index relative to T. b. brucei WT: EC50(U937)/EC50(TbbWT)” value came to 5.0.

Take `N=C(N)c1ccc(OCCCCCOc2ccc(C(=N)N)cc2)cc1` [Pentamidine, pentamidine, reference compound]: the “RF resistance factor (EC50 B48/EC50 WT)” value in assay [3] (Table 3) stood at 210; in assay [3] (Table 3, listed as pentamidine) it was 210.8. This compound also displayed an RF resistance factor in assay [3] (Table 5) of 145. Besides, the EC50 came to 0.721 µM in assay [3] (Trypanosoma brucei, read-out: AVG EC50 T. b. brucei B48, Table 3, pentamidine control, footnote: values in µM); 0.62 µM in assay [3] (setting [10]); 0.0034 µM in assay [4] (Trypanosoma brucei, Table 3, pentamidine control, footnote: values in µM); 0.0043 µM in assay [4] (setting [11]). In addition, the “Effect on in vitro growth of T. b. brucei B48 (cell count over time)” value in assay [7] is listed as “parasites were almost completely eliminated from the media after 32 h”.

The values above are taken from paper PMC8911803, “The Antiprotozoal Activity of Papua New Guinea Propolis and Its Triterpenes” (Molecules, 2022).
